Legend:
P. falciparum 3D7 [1] = experiment: Malaria SYBR green I based fluorescence assay, dose response, 3D7; format: cell-based; conditions: Plasmodium falciparum, blood stage culture, 72 hours, mean (SD), 1 to 3 biological replicates
Protocol: (§1) The BRDi compounds had modest activity against all three strains (Table 2 ). […]
(§2) Shield1. Parasites were propagated in human red blood cells (blood group 0+) obtained from the Bavarian Red Cross service (BRK) and cultivated under standard conditions in RPMI 1640 (ThermoFisher) supplemented with 0.5% Albumax
(§3) (ThermoFisher), 20 µg/ml Gentamycin, 25 mM Hepes (pH 7.3), and 0.02% hypoxanthine in an atmosphere of 1% O2, 5% CO2, 94% N2.
(§4) Malaria SYBR green I based fluorescence assay
(§5) SYBR Green I based fluorescence assays to determine dose-response curves were performed essentially as described previously (Leidenberger et al., 2017). Briefly, parasite cultures were diluted to 1% ring stage parasitemia and cultivated at 2.5% haematocrit in 96 well plates in the presence of serial half-log dilutions of the compounds ranging from 100 µM to 10 nM or DMSO (dimethyl sulfoxide) corresponding to the highest concentration (0.1%). Chloroquine (C6628, Sigma-Aldrich) was used as control that was not expected to target PfBDP1 and was titrated from 5 µM to 1.6 nM. After 72 hours, cultures were lysed in lysis buffer (20 mM Tris-HCl, 5 mM EDTA, 0.008% saponin (Sigma-Aldrich), 0.08% Triton X (Sigma-Aldrich), 1:10,000 SYBR Green I dye (Invitrogen)) and fluorescence was measured in a Fluoroskan Ascent FL reader (excitation: 485 nm, emission: 530 nm). […]

P. falciparum NF54 [2] = experiment: Malaria SYBR green I based fluorescence assay, dose response, NF54; format: cell-based; conditions: Plasmodium falciparum, blood stage culture, 72 hours, mean (SD), 1 to 3 biological replicates
Protocol: as §1, §2, §3, §4, §5

[3] = tested on: P. falciparum K1 (multidrug resistant); experiment: Malaria SYBR green I based fluorescence assay, dose response, K1; format: cell-based; conditions: Plasmodium falciparum, K1, 72 h, read-out: EC50 K1
Protocol: as §1
resistant strain K1, MRA-159, contributed by Dennis E. Kyle. […]
as §2, §3, §4, §5

P. falciparum 3D7 [4] = experiment: Growth of synchronous ring-stage cultures under treatment, 3D7; format: cell-based, Plasmodium falciparum; conditions: 3D7, synchronous ring stage, 48 h of treatment
P. falciparum NF54 [5] = experiment: Growth of synchronous ring-stage cultures under treatment, NF54; format: cell-based, Plasmodium falciparum; conditions: 48 h of treatment
[6] = tested on: P. falciparum blood stage parasites; experiment: Morphology and stage progression of treated synchronous parasites; format: cell-based, Plasmodium falciparum
[7] = tested on: 3D7::PfBDP1HADD parasites; experiment: Dose-response assay in conditional PfBDP1 knockdown parasites; format: cell-based, Plasmodium falciparum; conditions: 10 nM Shld1 compared to 500 nM Shld1, 72 h
Source text: To validate whether the compounds indeed target the BRD of PfBDP1, we utilized a conditional KD system to modulate the expression levels of PfBDP1 in situ.^[ [15] ^] In the 3D7::PfBDP1HADD line, PfBDP1 is fused at its C‐terminus to a ligand‐regulatable FKBP destabilization domain (DD) that targets the fusion protein for proteasomal degradation but can be stabilized by the Shield1 ligand, and 3xHA epitope tags for detection ^11. […] In contrast, the EC50 of chloroquine was unchanged.
A) Western Blot analysis of 3D7::PfBDP1HADD parasites cultivated in the presence of Shield1 (Shld) in concentrations ranging from 0 to 500 nM over 72 h in duplicates. PfBDP1HADD was detected by anti‐HA antibodies. Histone 3 (H3) was probed as a loading control. […] Growth was determined relative to DMSO controls for each condition after 72 h of culture. N = 4 replicates. […] Binding of PfBDP1HA to target loci was calculated as enrichment relative to histone H3 ChIP performed in parallel. Shown are individual values and median of one representative experiment with technical duplicates. Paired t‐test, p = 0.0015. […]
resistant strain K1, MRA-159, contributed by Dennis E. Kyle. The NF54::PfBDP1HA parasite line was generated by transfection of NF54 parasites with the plasmid pSLI_PfBDP1_3xHA and selection linked integration of the construct in the presence of G418[21]. […]
as §4
SYBR Green I based fluorescence assays to determine dose-response curves were performed essentially as described previously (Leidenberger et al., 2017). […] After 72 hours, cultures were lysed in lysis buffer (20 mM Tris-HCl, 5 mM EDTA, 0.008% saponin (Sigma-Aldrich), 0.08% Triton X (Sigma-Aldrich), 1:10,000 SYBR Green I dye (Invitrogen)) and fluorescence was measured in a Fluoroskan Ascent FL reader (excitation: 485 nm, emission: 530 nm). […]

Work on Cc1cc(C(N)=O)ccc1-c1[nH]c(C)c2c1CCCCC2=O [RMM23, 3-Methyl-4-(3-methyl-4-oxo-2,4,5,6,7,8-hexahydrocyclohepta[c]pyrrol-1-yl)benzamide] yielded an EC50 (P. falciparum 3D7 [1]) of 18.3 µM, an EC50 (P. falciparum NF54 [2]) of 14 µM and an EC50 [3] of 20.9 µM. The “parasite growth after treatment of ring-stage culture” value (P. falciparum 3D7 [4]) was “significantly reduced growth”, the “parasite growth after treatment of ring-stage culture” value (P. falciparum NF54 [5]) was “significantly reduced growth” and the “parasite development (morphology) after treatment from ring stage” value ([6]; treatment started at ring stage, normal trophozoites by 24 h) was “failed to undergo DNA replication and schizogony”. The “parasite development after treatment from trophozoite stage” value ([6]; treatment started at trophozoite stage, within 24 h, relative to DMSO control) was “block in egress and reinvasion” and the “change of sensitivity (dose-response, EC50) under partial PfBDP1 knockdown” value [7] was “increased sensitivity”.

— article PMC12132910, “A Novel Inhibitor against the Bromodomain Protein 1 of the Malaria Pathogen Plasmodium Falciparum” (Chemmedchem, 2025)
